# Experimental data taken from US20020055528A1, “Artemisinin analogs having antimalarial, antiproliferative, and antitumor activities and chemoselective methods of making the same” (priority 1999, published 2002).
# Entries after “also recorded” stand apart in the source; their conditions may differ.
# How the values were obtained:
# Assay type in all cases: cell-based
# [1] = tested on: 60 cell line panel; experiment: NCI 60 cell line screen (SRB), whole panel; conditions: for Delta of Log10GI50 (Table IV) / Range of Log10GI50 (Table IV) / MG MID of Log10GI50 (Table IV): Table IV (LC50); for Delta of Log10GI50 (Table IV) / Range of Log10GI50 (Table IV) / Delta of Log10GI50 / Delta of Log10TGI / Range of Log10GI50 / Range of Log10TGI: panel summary; for MG MID of Log10GI50 (Table IV) / MG MID of Log10GI50 / MG MID of Log10TGI: mean over the panel; for potency in words, compared with artemisinin and paclitaxel: Tables II, III and IV
# Method: The screening assay is performed on 96-well microtitre plates. Relatively high initial inoculation densities are used, in order to permit measurement of “time-zero” values and to enhance the screen's ability to detect and provide some differentiation between antiproliferative and cytotoxic response parameters. […] The inoculated microtitre plates are pre-incubated for 24 hours at 37θC prior to drug additions. The five drug dilutions tested routinely range from 10^−4 to 10^−8 molar. Higher or lower concentration ranges may be selected on a nonroutine basis if appropriate solubility and/or prior biological information or other screening data so dictate. Duplicate wells are prepared for all concentrations, (concentration is often denoted by placing brackets around a number); “time-zero” and “no drug” controls are also provided for each test. The minimum amount of compound required for a one-time evaluation in the routine screen can be calculated from the knowledge that each test requires a total of approximately 40 ml (0.04 liter) of cell culture medium containing the highest desired drug concentration. Thus, the amount (grams) of sample required (assuming an upper test concentration limit of 10^−4 M) is: molecular weight of compound×[…]. After a 48 hour incubation (37θC) with the test compound, the cells are fixed in situ to the bottoms of the microtitre wells by addition of 50 ul of either 50% trichloroacetic acid (for adherent cell lines) or 80% trichloroacetic acid (for settled cell suspension lines), followed by incubation for 60 minutes at 4θC. The cellular protein in each well is assayed using a sulforhodamine B (SRB) stain procedure. Briefly, after discarding the supernatants, the microtitre plates are washed 5 times with deionized water and air-dried. One hundred microliters of SRB solution (0.4% w/v in 1% acetic acid) is added to each microtitre well and incubated for 10 minutes at room temperature. Unbound SRB is removed by washing 5 times with 1 % acetic acid. The plates are air-dried, the bound stain is solubilized with Tris buffer, and the optical densities read at 515 nm. SRB is a bright pink anionic dye which, in dilute acetic acid, binds electrostatically to the basic amino acids of TCA-fixed cells. Cryopreserved master stocks of all the lines are maintained, and cultures used for screening are replaced from the master stock after no more than twenty passages in the screening laboratory. The cell line panel consists of 60 lines, organized into nine, disease-related subpanels including leukemia, non-small-cell lung cancer, colon, CNS, melanoma, ovarian, renal, prostate and breast cancers.
# The response parameters G150 and LC50 are interpolated values representing the concentrations at which the percentage growth (PG) is +50 and −50, respectively:
# GI50 is the concentration for which the PG=+50. At this value the increase from time tzero, in the number or mass of cells in the test well is only 50% as much as the corresponding increase in the control well during this period of the experiment, see Table II. A drug effect of this intensity is interpreted as primary growth inhibition.
# TGI is the concentration for which PG=0. At this value the number or mass of cells in the well at the end of the experiment equals the number or mass of cells in the well at time tzero, see Table III. A drug effect of this intensity is regarded as cytostasis.
# LC50 is the concentration for which the PG=−50. At this value, the number or mass of cells in the test well at the end of the experiment is half that at time tzero, see Table IV. This is interpreted as cytotoxicity.
# [2] = tested on: UACC-257; experiment: NCI 60 cell line screen (SRB), Melanoma; conditions: for Log10TGI: PG=0
# [3] = tested on: NCI-H23; experiment: NCI 60 cell line screen (SRB), Non-Small Cell Lung Cancer; conditions: for Log10TGI: PG=0
# [4] = tested on: HCT-116; experiment: NCI 60 cell line screen (SRB), Colon Cancer; conditions: for Log10TGI: PG=0
# [5] = tested on: A498; experiment: NCI 60 cell line screen (SRB), Renal Cancer; conditions: for Log10TGI: PG=0
# [6] = tested on: K-562; experiment: NCI 60 cell line screen (SRB), Leukemia; conditions: for Log10TGI: PG=0
# [7] = tested on: PC-3; experiment: NCI 60 cell line screen (SRB), Prostate Cancer; conditions: for Log10TGI: PG=0
# [8] = tested on: HCT-15; experiment: NCI 60 cell line screen (SRB), Colon Cancer; conditions: for Log10TGI: PG=0
# [9] = tested on: OVCAR-4; experiment: NCI 60 cell line screen (SRB), Ovarian Cancer
# [10] = tested on: SK-OV-3; experiment: NCI 60 cell line screen (SRB), Ovarian Cancer; conditions: for Log10TGI: PG=0
# [11] = Table IV (LC50, PG=−50), OVCAR−4
SMILES,Delta of Log10GI50 (Table IV) [1],Range of Log10GI50 (Table IV) [1],Delta of Log10GI50 [1],Delta of Log10TGI [1],Range of Log10GI50 [1],Range of Log10TGI [1],Log10TGI [2],Log10TGI [3],Log10TGI [4],Log10TGI [5],Log10GI50 ([5]; PG=+50),"Log10GI50 ([5]; Table IV (LC50, PG=−50))",Log10TGI [6],Log10GI50 ([6]; PG=+50),"Log10GI50 ([6]; Table IV (LC50, PG=−50))",Log10TGI [7],Log10TGI [8],"Log10GI50 ([9]; OVCAR-4, PG=+50)","Log10GI50 [9, 11]",MG MID of Log10GI50 (Table IV) [1],other results
"C[C@@H]1CC[C@H]2[C@@H](C)C(=O)O[C@@H]3O[C@]4(C)CC[C@@H]1[C@]32OO4 [Artemisinin, artemisinin]",−4.00,0.00,−4.07,−4.00,0.73,0.06,>−4.00 log10M,>−4.00 log10M,>−4.00 log10M,>−4.00 log10M,>−4.00 log10M,>−4.00 log10M,−4.00 log10M,−4.33 log10M,>−4.00 log10M,−4.00 log10M,>−4.00 log10M,,,,
"CC(=O)O[C@H]1C(=O)[C@@]2(C)[C@H]([C@H](OC(=O)c3ccccc3)[C@]3(O)C[C@H](OC(=O)[C@H](O)[C@@H](NC(=O)c4ccccc4)c4ccccc4)C(C)=C1C3(C)C)[C@]1(OC(C)=O)CO[C@@H]1C[C@@H]2O [Paclitaxel, paclitaxel, reference compound]",,4.06,−10.15,−4.54,8.00,7.20,−4.52 log10M,,−4.82 log10M,,−7.14 log10M,−4.13 log10M,−10.83 log10M,−10.83 log10M,>−4.00 log10M,>−4.00 log10M,>−4.00 log10M,−5.00 log10M,>−4.00 log10M,,"Log10TGI ([9]; OVCAR−4, PG=0): −4.19 log10M"
CC1=C(C=Cc2cccc(C=CC3=C(C)C4CCC(C)C5CCC6(C)OOC45C(O3)O6)c2)OC2OC3(C)CCC4C(C)CCC1C24OO3 (stereo not shown) [VII-f],1.70,1.93,0.98,1.70,2.71,1.93,>−4.00 log10M,−4.36 log10M,>−4.00 log10M,−4.37 log10M,−4.79 log10M,>−4.00 log10M,−6.18 log10M,−6.18 log10M,>−4.00 log10M,>−4.00 log10M,−4.82 log10M,−5.93 log10M,>−4.00 log10M,−4.23 log10M,"potency in words, compared with artemisinin and paclitaxel [1]: in most instances are as potent and in some instances more potent than paclitaxel; also recorded: more potent than artemisinin and equivalent to and in many instances higher in potency than paclitaxel; MG MID of Log10GI50 [1]: −5.73 log10M; MG MID of Log10TGI [1]: −4.23 log10M; Log10 GI50 (PG=+50) or Log10 LC50 (PG=−50) ([2]; PG=+50): −6.02 log10M; Log10 GI50 (PG=+50) or Log10 LC50 (PG=−50) ([2]; Table IV (LC50, PG=−50)): >−4.00 log10M; log10 GI50 or LC50 (see conditions) ([3]; PG=+50): −5.32 log10M; log10 GI50 or LC50 (see conditions) ([3]; Table IV (LC50, PG=−50)): >−4.00 log10M; Log10TGI [10]: >−4.00 log10M; Log10GI50 ([10]; PG=+50): −4.52 log10M; Log10GI50 ([10]; Table IV (LC50, PG=−50)): >−4.00 log10M; Log10 GI50 (PG=+50) or Log10 LC50 (PG=−50), as given per row condition ([4]; PG=+50): −6.12 log10M; Log10 GI50 (PG=+50) or Log10 LC50 (PG=−50), as given per row condition ([4]; Table IV (LC50, PG=−50)): >−4.00 log10M; Log10 GI50 (PG=+50) or LC50 (PG=−50) ([7]; PG=+50): −6.30 log10M; Log10 GI50 (PG=+50) or LC50 (PG=−50) ([7]; Table IV (LC50, PG=−50)): >−4.00 log10M; log10 GI50 (PG=+50) or LC50 (PG=−50), per row condition ([8]; PG=+50): −6.13 log10M; log10 GI50 (PG=+50) or LC50 (PG=−50), per row condition ([8]; Table IV (LC50, PG=−50)): >−4.00 log10M"
CC1=C(C=Cc2cccc(C=CC3=C(C)C4CCC(C)C5CCC6(C)OOC45C(O3)O6)c2)OC2OC3(C)CCC4C(C)CCC1C24OO3 (stereo not shown) [VII-g],0.94,0.96,0.93,2.51,2.60,2.82,−4.58 log10M,−4.06 log10M,>−4.00 log10M,−4.05 log10M,−6.04 log10M,>−4.00 log10M,−7.31 log10M,−7.31 log10M,>−4.00 log10M,>−4.00 log10M,−4.88 log10M,−6.96 log10M,>−4.00 log10M,−4.02 log10M,"potency in words, compared with artemisinin and paclitaxel [1]: in most instances are as potent and in some instances more potent than paclitaxel; also recorded: more potent than artemisinin and equivalent to and in many instances higher in potency than paclitaxel; MG MID of Log10GI50 [1]: −6.58 log10M; MG MID of Log10TGI [1]: −4.32 log10M; Log10 GI50 (PG=+50) or Log10 LC50 (PG=−50) ([2]; PG=+50): −7.09 log10M; Log10 GI50 (PG=+50) or Log10 LC50 (PG=−50) ([2]; Table IV (LC50, PG=−50)): >−4.00 log10M; log10 GI50 or LC50 (see conditions) ([3]; PG=+50): −5.92 log10M; log10 GI50 or LC50 (see conditions) ([3]; Table IV (LC50, PG=−50)): >−4.00 log10M; Log10TGI [10]: >−4.00 log10M; Log10GI50 ([10]; PG=+50): −5.05 log10M; Log10GI50 ([10]; Table IV (LC50, PG=−50)): >−4.00 log10M; Log10 GI50 (PG=+50) or Log10 LC50 (PG=−50), as given per row condition ([4]; PG=+50): −7.13 log10M; Log10 GI50 (PG=+50) or Log10 LC50 (PG=−50), as given per row condition ([4]; Table IV (LC50, PG=−50)): >−4.00 log10M; Log10 GI50 (PG=+50) or LC50 (PG=−50) ([7]; PG=+50): −7.32 log10M; Log10 GI50 (PG=+50) or LC50 (PG=−50) ([7]; Table IV (LC50, PG=−50)): >−4.00 log10M; log10 GI50 (PG=+50) or LC50 (PG=−50), per row condition ([8]; PG=+50): −7.05 log10M; log10 GI50 (PG=+50) or LC50 (PG=−50), per row condition ([8]; Table IV (LC50, PG=−50)): >−4.00 log10M"
